{"source": "patent US10131652B2", "about": "“Pyrimidinyloxy benzene derivatives as herbicides” (E. I. DU PONT DE NEMOURS AND COMPANY, priority 2014, dated 2018)", "format_in_all_cases": "in vivo", "key": {"[1]": {"test_system": "wheat (Triticum aestivum)", "experiment": "Test B pre-/postemergence plant response", "conditions": "Triticum aestivum, 240 h, read-out: Plant response rating, Wheat; for plant injury at 125 g/ha: 125 g ai/ha; for plant injury at 500 g/ha: 500 g ai/ha", "method_in_brief": "(§1)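 Ratings reflect visual injury versus untreated controls, from 0 for no effect to 100 for complete control, assessed roughly 10 days after treatment. Formulation: non-phytotoxic solvent mix with surfactant; pre- and postemergence sprays on plants grown in loam soil and sand.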"}, "[2]": {"test_system": "giant foxtail (Setaria faberii)", "experiment": "Test B pre-/postemergence plant response", "conditions": "Setaria faberi, 240 h, read-out: Plant response rating, Foxtail, Giant; for pest or weed control at 125 g/ha: 125 g ai/ha; for pest or weed control at 500 g/ha: 500 g ai/ha", "method_in_brief": "as §1"}, "corn (Zea mays)": {"test_system": "corn (Zea mays)", "experiment": "Test B pre-/postemergence plant response", "conditions": "Zea mays, 240 h; for Corn plant response rating (crop injury, 0 = no effect, 100 = complete kill) at 125 g/ha: 125 g ai/ha; for Corn plant response rating (crop injury, 0 = no effect, 100 = complete kill) at 500 g/ha: 500 g ai/ha", "method_in_brief": "as §1"}, "[3]": {"test_system": "barnyardgrass (Echinochloa crus-galli)", "experiment": "Test B pre-/postemergence plant response", "conditions": "Echinochloa crus-galli, 240 h, read-out: Plant response rating, Barnyardgrass; for pest or weed control at 125 g/ha: 125 g ai/ha; for pest or weed control at 500 g/ha: 500 g ai/ha", "method_in_brief": "as §1"}, "[4]": {"test_system": "pigweed (Amaranthus retroflexus)", "experiment": "Test B pre-/postemergence plant response", "conditions": "Amaranthus retroflexus, 240 h, read-out: Plant response rating, Pigweed; for pest or weed control at 125 g/ha: 125 g ai/ha; for pest or weed control at 500 g/ha: 500 g ai/ha", "method_in_brief": "as §1"}, "soybean (Glycine max)": {"test_system": "soybean (Glycine max)", "experiment": "Test D pre-/postemergence plant response", "conditions": "Glycine max; for plant injury at 16 g/ha: 16 g ai/ha; for plant injury at 31 g/ha: 31 g ai/ha; for plant injury at 62 g/ha: 62 g ai/ha; for plant injury at 125 g/ha: 125 g ai/ha", "method_in_brief": "(§2)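 Plants are held in a greenhouse 13 to 15 days after spraying, then injury is rated by eye relative to controls on a 0 to 100 scale. Treatments are preemergence on freshly sown loam/sand pots or postemergence at 1- to 4-leaf stage in peat-based medium; surfactant-containing solvent formulation.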"}, "[5]": {"test_system": "waterhemp (common waterhemp, Amaranthus rudis)", "experiment": "Test D pre-/postemergence plant response", "conditions": "Amaranthus tuberculatus; for pest or weed control at 16 g/ha: 16 g ai/ha; for pest or weed control at 31 g/ha: 31 g ai/ha; for pest or weed control at 62 g/ha: 62 g ai/ha; for pest or weed control at 125 g/ha: 125 g ai/ha", "method_in_brief": "as §2"}, "[6]": {"test_system": "johnsongrass (Sorghum halepense)", "experiment": "Test D pre-/postemergence plant response", "conditions": "Sorghum halepense; for pest or weed control at 16 g/ha: 16 g ai/ha; for pest or weed control at 31 g/ha: 31 g ai/ha; for pest or weed control at 62 g/ha: 62 g ai/ha; for pest or weed control at 125 g/ha: 125 g ai/ha", "method_in_brief": "as §2"}, "[7]": {"test_system": "giant foxtail (Setaria faberii)", "experiment": "Test D pre-/postemergence plant response", "conditions": "Setaria faberi; for pest or weed control at 16 g/ha: 16 g ai/ha; for pest or weed control at 31 g/ha: 31 g ai/ha; for pest or weed control at 62 g/ha: 62 g ai/ha; for pest or weed control at 125 g/ha: 125 g ai/ha", "method_in_brief": "as §2"}, "[8]": {"test_system": "blackgrass (Alopecurus myosuroides)", "experiment": "Test D pre-/postemergence plant response", "conditions": "Alopecurus myosuroides, post-emergence, Postemergence, scale 0 to 100 (0 no effect, 100 complete control), read-out: Blackgrass plant response rating", "method_in_brief": "as §2"}, "[9]": {"conditions": "post-emergence, postemergence, 0 to 100 scale, 0 no effect, 100 complete control"}, "[10]": {"conditions": "post-emergence, Postemergence, 0 to 100 scale (0 no effect, 100 complete control)"}, "[11]": {"conditions": "pre-emergence, Preemergence, 0 to 100 scale where 0 is no effect and 100 is complete control"}, "[12]": {"conditions": "post-emergence, Postemergence, scale 0 to 100 (0 no effect, 100 complete control), read-out: Soybean plant response rating"}, "[13]": {"conditions": "post-emergence, Postemergence, scale 0 to 100, 0 no effect, 100 complete control, read-out: Plant response rating, Soybean"}, "[14]": {"conditions": "pre-emergence, Preemergence, scale 0 to 100 (0 no effect, 100 complete control), read-out: Plant response rating, Soybean"}, "[15]": {"conditions": "post-emergence, Postemergence, scale 0 to 100 (0 no effect, 100 complete control), read-out: Waterhemp plant response rating"}, "[16]": {"conditions": "post-emergence, Postemergence, scale 0 to 100, 0 no effect, 100 complete control, read-out: Plant response rating, Waterhemp"}, "[17]": {"conditions": "pre-emergence, Preemergence, scale 0 to 100 (0 no effect, 100 complete control), read-out: Plant response rating, Waterhemp"}, "[18]": {"conditions": "post-emergence, Postemergence, scale 0 to 100 (0 no effect, 100 complete control), read-out: Johnsongrass plant response rating"}, "[19]": {"conditions": "post-emergence, Postemergence, scale 0 to 100, 0 no effect, 100 complete control, read-out: Plant response rating, Johnsongrass"}, "[20]": {"conditions": "pre-emergence, Preemergence, scale 0 to 100 (0 no effect, 100 complete control), read-out: Plant response rating, Johnsongrass"}, "[21]": {"conditions": "post-emergence, Postemergence, scale 0 to 100 (0 no effect, 100 complete control), read-out: Foxtail, Giant plant response rating"}, "[22]": {"conditions": "post-emergence, Postemergence, scale 0 to 100, 0 no effect, 100 complete control, read-out: Plant response rating, Foxtail, Giant"}, "[23]": {"conditions": "pre-emergence, Preemergence, scale 0 to 100 (0 no effect, 100 complete control), read-out: Plant response rating, Foxtail, Giant"}}, "note": "Where two headings read alike, the source gives them in different places."}
{"molecule": "FC(F)(F)c1cc(-c2ccccc2Oc2ncc(Cl)cn2)on1", "note": "[Compound 63, 5-chloro-2-[2-[3-(trifluoromethyl)-5-isoxazolyl]phenoxy]pyrimidine]", "values": [{"measurement": "plant injury at 125 g/ha", "setting": "[1]; [9]", "result": 0, "unit": "%"}, {"measurement": "plant injury at 500 g/ha", "setting": "[1]; [10]", "result": 50, "unit": "%"}, {"measurement": "plant injury at 125 g/ha", "setting": "[1]; [11]", "result": 20, "unit": "%"}, {"measurement": "plant injury at 500 g/ha", "setting": "[1]; [11]", "result": 40, "unit": "%"}, {"measurement": "pest or weed control at 125 g/ha", "setting": "[2]; [9]", "result": 70, "unit": "%"}, {"measurement": "pest or weed control at 500 g/ha", "setting": "[2]; [10]", "result": 80, "unit": "%"}, {"measurement": "pest or weed control at 125 g/ha", "setting": "[2]; [11]", "result": 100, "unit": "%"}, {"measurement": "pest or weed control at 500 g/ha", "setting": "[2]; [11]", "result": 100, "unit": "%"}, {"measurement": "Corn plant response rating (crop injury, 0 = no effect, 100 = complete kill) at 125 g/ha", "setting": "corn (Zea mays); [9]", "result": 20, "unit": "%"}, {"measurement": "Corn plant response rating (crop injury, 0 = no effect, 100 = complete kill) at 500 g/ha", "setting": "corn (Zea mays); [10]", "result": 20, "unit": "%"}, {"measurement": "Corn plant response rating (crop injury, 0 = no effect, 100 = complete kill) at 125 g/ha", "setting": "corn (Zea mays); [11]", "result": 10, "unit": "%"}, {"measurement": "Corn plant response rating (crop injury, 0 = no effect, 100 = complete kill) at 500 g/ha", "setting": "corn (Zea mays); [11]", "result": 30, "unit": "%"}, {"measurement": "pest or weed control at 125 g/ha", "setting": "[3]; [9]", "result": 80, "unit": "%"}, {"measurement": "pest or weed control at 500 g/ha", "setting": "[3]; [10]", "result": 100, "unit": "%"}, {"measurement": "pest or weed control at 125 g/ha", "setting": "[3]; [11]", "result": 90, "unit": "%"}, {"measurement": "pest or weed control at 500 g/ha", "setting": "[3]; [11]", "result": 100, "unit": "%"}, {"measurement": "pest or weed control at 125 g/ha", "setting": "[4]; [9]", "result": 100, "unit": "%"}, {"measurement": "pest or weed control at 500 g/ha", "setting": "[4]; [10]", "result": 100, "unit": "%"}, {"measurement": "pest or weed control at 125 g/ha", "setting": "[4]; [11]", "result": 100, "unit": "%"}, {"measurement": "pest or weed control at 500 g/ha", "setting": "[4]; [11]", "result": 100, "unit": "%"}, {"measurement": "plant injury at 16 g/ha", "setting": "soybean (Glycine max); [12]", "result": 35, "unit": "%"}, {"measurement": "plant injury at 31 g/ha", "setting": "soybean (Glycine max); [12]", "result": 45, "unit": "%"}, {"measurement": "plant injury at 62 g/ha", "setting": "soybean (Glycine max); [13]", "result": 55, "unit": "%"}, {"measurement": "plant injury at 125 g/ha", "setting": "soybean (Glycine max); [13]", "result": 98, "unit": "%"}, {"measurement": "plant injury at 125 g/ha", "setting": "soybean (Glycine max); pre-emergence, Preemergence, read-out: Plant response rating (scale 0 to 100), Soybean", "result": 60, "unit": "%"}, {"measurement": "plant injury at 16 g/ha", "setting": "soybean (Glycine max); [14]", "result": 5, "unit": "%"}, {"measurement": "plant injury at 31 g/ha", "setting": "soybean (Glycine max); [14]", "result": 15, "unit": "%"}, {"measurement": "plant injury at 62 g/ha", "setting": "soybean (Glycine max); [14]", "result": 45, "unit": "%"}, {"measurement": "pest or weed control at 16 g/ha", "setting": "[5]; [15]", "result": 85, "unit": "%"}, {"measurement": "pest or weed control at 31 g/ha", "setting": "[5]; [15]", "result": 85, "unit": "%"}, {"measurement": "pest or weed control at 62 g/ha", "setting": "[5]; [16]", "result": 98, "unit": "%"}, {"measurement": "pest or weed control at 125 g/ha", "setting": "[5]; [16]", "result": 98, "unit": "%"}, {"measurement": "pest or weed control at 125 g/ha", "setting": "[5]; pre-emergence, Preemergence, read-out: Plant response rating (scale 0 to 100), Waterhemp", "result": 100, "unit": "%"}, {"measurement": "pest or weed control at 16 g/ha", "setting": "[5]; [17]", "result": 90, "unit": "%"}, {"measurement": "pest or weed control at 31 g/ha", "setting": "[5]; [17]", "result": 100, "unit": "%"}, {"measurement": "pest or weed control at 62 g/ha", "setting": "[5]; [17]", "result": 100, "unit": "%"}, {"measurement": "pest or weed control at 16 g/ha", "setting": "[6]; [18]", "result": 5, "unit": "%"}, {"measurement": "pest or weed control at 31 g/ha", "setting": "[6]; [18]", "result": 5, "unit": "%"}, {"measurement": "pest or weed control at 62 g/ha", "setting": "[6]; [19]", "result": 25, "unit": "%"}, {"measurement": "pest or weed control at 125 g/ha", "setting": "[6]; [19]", "result": 45, "unit": "%"}, {"measurement": "pest or weed control at 125 g/ha", "setting": "[6]; pre-emergence, Preemergence, read-out: Plant response rating (scale 0 to 100), Johnsongrass", "result": 85, "unit": "%"}, {"measurement": "pest or weed control at 16 g/ha", "setting": "[6]; [20]", "result": 5, "unit": "%"}, {"measurement": "pest or weed control at 31 g/ha", "setting": "[6]; [20]", "result": 35, "unit": "%"}, {"measurement": "pest or weed control at 62 g/ha", "setting": "[6]; [20]", "result": 70, "unit": "%"}, {"measurement": "pest or weed control at 16 g/ha", "setting": "[7]; [21]", "result": 0, "unit": "%"}, {"measurement": "pest or weed control at 31 g/ha", "setting": "[7]; [21]", "result": 5, "unit": "%"}, {"measurement": "pest or weed control at 62 g/ha", "setting": "[7]; [22]", "result": 10, "unit": "%"}, {"measurement": "pest or weed control at 125 g/ha", "setting": "[7]; [22]", "result": 20, "unit": "%"}, {"measurement": "pest or weed control at 125 g/ha", "setting": "[7]; pre-emergence, Preemergence, read-out: Plant response rating (scale 0 to 100), Foxtail, Giant", "result": 100, "unit": "%"}, {"measurement": "pest or weed control at 16 g/ha", "setting": "[7]; [23]", "result": 30, "unit": "%"}, {"measurement": "pest or weed control at 31 g/ha", "setting": "[7]; [23]", "result": 80, "unit": "%"}, {"measurement": "pest or weed control at 62 g/ha", "setting": "[7]; [23]", "result": 98, "unit": "%"}, {"measurement": "pest or weed control at 16 g/ha", "setting": "[8]; 16 g ai/ha", "result": 5, "unit": "%"}, {"measurement": "pest or weed control at 31 g/ha", "setting": "[8]; 31 g ai/ha", "result": 10, "unit": "%"}]}
